# Measured values published in patent US5541232A, “Treatment of multidrug resistant diseases” (Chemex Pharmaceuticals, Inc., priority 1994, dated 1996).
# Columns and labels:
# [1] = system: human breast adenocarcinoma; conditions: cited from earlier work
# [2] = system: MCF7/ADR human breast adenocarcinoma cells; assay: flow cytometry P-glycoprotein function assay of doxorubicin efflux, MCF7/ADR (doxorubicin resistant); type: cell-based
# Method: (§1) The following tests were preformed to determine the effect of NDGA on efflux of doxorubicin (hereinafter sometimes referred to as DOX) for doxorubicin sensitive MCF7/0 and doxorubicin resistant MCF7/ADR human breast adenocarcinoma cells in vitro.
# (§2) The cells were exposed to 50 μg/ml NDGA for 24 hrs prior to loading with DOX (doxorubicin) at 37° C. […] PBS. Flow analysis of cell efflux of DOX was collected over 30 minutes using the time parameter.
# (§3) Procedure for P-Glycoprotein (PGP) Function Assay of Doxorubicin Efflux is shown hereunder.
# (§4) 1. […] Store at room temperature.
# (§5) 2. Doxorubicin (GFW=580) Make a solution of doxorubicin to contain 10 μg/ml. Store frozen at 0° C.
# (§6) 4. NDGA (MW=302.36) Make a solution of NDGA to contain 50 μg/ml. Store frozen at 0° C.
# (§7) 5. MCF7/0 (Doxorubicin sensitive) and MCF7/ADR (Doxorubicin resistant), human breast adenocarcinoma cell lines.
# (§8) 1. Make up 2×10^6 cells per ml in PBS. Expose 1 ml of cells to 50 μg of NDGA for 24 hrs at 37° C. prior to loading with Doxorubicin.
# (§9) 2. Add 1 ml of 10 μg/ml doxorubicin, mix and divide into two aliquots.
# (§10) 4. Incubate both tubes at 37° C. for 30 minutes.
# (§11) 5. Centrifuge the tubes at 37° C. for 5 minutes on a fast spin to pellet cells. Resuspend in 1 ml of buffer.
# (§12) 6. Run immediately on the flow cytometer. Excitation 488 nm, emission 560-600 nm. Collect forward and 90° side scatter and PMT4 linear scale. Collect 10,000-50,000 events and calculate the mean channel fluorescence (MCF) for PMT4.
# (§13) 7. Run both samples as close together as possible, and avoid prolonged exposure to room temperature.
# [3] = system: CAK-1 Renal cancer cells; assay: in vitro cytotoxicity anti tumor activity; type: cell-based
# [4] = system: WI-38 Lung Fibroblasts; assay: in vitro cytotoxicity, normal cells; type: cell-based; conditions: Homo sapiens
# [5] = system: Detroit 551 Skin Fibroblasts; assay: in vitro cytotoxicity, normal cells; type: cell-based; conditions: Homo sapiens
# [6] = system: LOX-IMVI Melanoma cells; assay: in vitro cytotoxicity anti tumor activity; type: cell-based; conditions: Homo sapiens
# [7] = system: MCF7/0 human breast adenocarcinoma cells; assay: flow cytometry P-glycoprotein function assay of doxorubicin efflux, MCF7/0 (doxorubicin sensitive); type: cell-based
# Method: as §1, §2, §3, §4, §5, §6, §7, §8, §9, §10, §11, §12, §13
# [8] = system: OVCAR3 ovarian cancer cells; assay: in vitro cytotoxicity anti tumor activity; type: cell-based; conditions: Homo sapiens
# [9] = system: Lung (LX-1) cancer cells; assay: in vitro cytotoxicity anti tumor activity; type: cell-based; conditions: 1 h
# [10] = system: SNB Glioblastoma cells; assay: in vitro cytotoxicity anti tumor activity; type: cell-based
# [11] = system: Hs 68 Newborn Foreskin Fibroblasts; assay: in vitro cytotoxicity, normal cells; type: cell-based; conditions: Homo sapiens
# [12] = system: DLD-1 Colon cancer cells; assay: in vitro cytotoxicity anti tumor activity; type: cell-based; conditions: Homo sapiens
# [13] = system: Lung (NCI-H23) cancer cells; assay: in vitro cytotoxicity anti tumor activity; type: cell-based; conditions: Homo sapiens
# [14] = system: GRC-1 multidrug resistant human cervical carcinoma cells; assay: inhibition of colony formation, GRC-1; type: cell-based
# Source text: (§14) To investigate whether masoprocol modulates multidrug resistance, a line of multidrug resistant (GRC-1) cells which were derived from parenteral drug sensitive human cervical carcinoma (KB-3-1) cells by transfection of the mdr1 genes were employed. Such transfection was by the method set forth in Choi, et al., Cell 53:519-529, 1989. These cell lines differ only with respect to the over-expression of P-glycoprotein. These tests were designed to examine whether masoprocol modulates tumor cell drug resistance by interfering with P-glycoprotein function. […] See, Regulation of initial vinblastine influx by P-glycoprotein, Shalinsky, et al., cited above.
# Masoprocol was provided by Chemex Pharmaceuticals, Inc. (Fort Lee, N.J.). Tritiated vinblastine ([^3 H]VBL) (10 Ci mmol^-1) was purchased from Moravek Biochemicals (Brea, Calif.), stored in the dark at -80° C. and protected from light during the experiments. Dipyridamole (DPM) was provided by Boerhinger Ingelheim Pharmaceuticals, Inc. (Ridgefield, Conn.).
# Drug-sensitive KB-3-1 cells and the drug resistant subline (KB-GRC-1) were obtained from Dr. Igor Roninson (University of Illinois, College of Medicine, Chicago, Ill.). Cells were maintained in Dulbecco's modified Eagle's medium supplemented with 10% fetal bovine serum and 2 mM glutamine. The KB-GRC-1 cells were maintained in medium supplemented with 6 ng/ml colchicine.
# (§15) First, cells which had been seeded at 200-300 cells/dish were incubated in media containing masoprocol or VBL. After an incubation period of 10 days at 37° C. the cells were fixed with methanol and stained with Giemsa, and the number of colonies per dish were counted and expressed as a percent of the number of colonies in control conditions. […] Parenthesis indicate standard deviations determined from replicate experiments.
# [15] = system: P-glycoprotein; conditions: cited from earlier work
# [16] = system: P-glycoprotein; conditions: known, Shalinsky et al.; cited from earlier work
# [17] = system: KB-3-1 human cervical carcinoma cells; assay: inhibition of colony formation, KB-3-1; type: cell-based; conditions: KB 3-1, 240 h, read-out: IC50 (VBL), 50% inhibition of colony formation
# Source text: as §14
# Masoprocol was provided by Chemex Pharmaceuticals, Inc. (Fort Lee, N.J.). Tritiated vinblastine ([^3 H]VBL) (10 Ci mmol^-1) was purchased from Moravek Biochemicals (Brea, Calif.), stored in the dark at -80° C. and protected from light during the experiments. […]
# as §15
# [18] = No NDGA, DOX + Verapamil (30 μl of a 1 mM solution)
# [19] = No NDGA, DOX alone, 5 μg×30 min, 37° C.
# [20] = RX NDGA (50 μg/ml, 24 hrs), DOX
# [21] = RX NDGA (50 μg/ml, 24 hrs), DOX + Verapamil
smiles,measurement,setting,value
"C[C@@H](Cc1ccc(O)c(O)c1)[C@@H](C)Cc1ccc(O)c(O)c1 (relative stereo) [d,l NDGA]",effectiveness against human breast adenocarcinoma,[1],particularly effective
"COc1cc(CC(C)C(C)Cc2ccc(O)c(OC)c2)ccc1O (centres unmarked) [1,4-bis(3'-methoxy-4'-hydroxyphenyl)-2,3-dimethyl butane]",effectiveness against human breast adenocarcinoma,[1],particularly effective
"COc1cc(CCCCc2ccc(O)c(OC)c2)ccc1O [1,4-bis(3'-methoxy-4'-hydroxyphenylbutane]",effectiveness against human breast adenocarcinoma,[1],particularly effective
"Oc1ccc(CCCCc2cc(O)c(O)c(O)c2)cc1O [1-(3',4'-dihydroxyphenyl)-4(3',4',5'-trihydroxyphenyl)-butane]",effectiveness against human breast adenocarcinoma,[1],particularly effective
"Oc1ccc(CCCCc2ccc(O)c(O)c2O)cc1O [1-(3',4'-dihydroxyphenyl)-4-(2',3',4'-trihydroxphenyl)-butane]",effectiveness against human breast adenocarcinoma,[1],particularly effective
"Oc1ccc(O)c(CCCCc2ccc(O)c(O)c2)c1 [1-(3',4'-dihydroxyphenyl)-4-(2',5'-dihydroxyphenyl)-butane]",effectiveness against human breast adenocarcinoma,[1],particularly effective
"Oc1ccc(CCCCc2ccccc2)cc1O [1-(3',4'-dihydroxyphenyl)-4-phenyl butane]",effectiveness against human breast adenocarcinoma,[1],particularly effective
COc1cccc2c1C(=O)c1c(O)c3c(c(O)c1C2=O)C[C@@](O)(C(=O)CO)C[C@@H]3O[C@H]1C[C@H](N)[C@H](O)[C@H](C)O1 [Doxorubicin],Mean channel fluorescence (loading of DOX in cells),[2]; [18],309.9
same,Mean channel fluorescence (loading of DOX in cells),[2]; [19],227.4
same,Mean channel fluorescence (loading of DOX in cells),[2]; [20],285.6
same,Mean channel fluorescence (loading of DOX in cells),[2]; [21],365.4
same,IC50,[3]; 1 h,3800 nM
same,IC50,[3]; 70 h,110 nM
same,IC50,"[4]; WI-38, 1 h",10000 nM
same,IC50,"[4]; WI-38, 70 h",600 nM
same,IC50,"[5]; Detroit 551, 1 h",3200 nM
same,IC50,"[5]; Detroit 551, 70 h",5500 nM
same,IC50,[6]; 1 h,4800 nM
same,IC50,[6]; 70 h,90 nM
same,Mean channel fluorescence (loading of DOX in cells),[7]; [18],312.8
same,Mean channel fluorescence (loading of DOX in cells),[7]; [19],318.7
same,Mean channel fluorescence (loading of DOX in cells),[7]; [20],460.4
same,Mean channel fluorescence (loading of DOX in cells),[7]; [21],435.6
same,IC50,"[8]; OVCAR-3, 1 h",13800 nM
same,IC50,"[8]; OVCAR-3, 70 h",700 nM
same,IC50,[9],26000 nM
same,IC50,[10]; 1 h,700 nM
same,IC50,[10]; 70 h,30 nM
same,IC50,"[11]; Hs68, 1 h",11600 nM
same,IC50,"[11]; Hs68, 70 h",120 nM
same,IC50,"[12]; DLD-1, 1 h",3700 nM
same,IC50,"[12]; DLD-1, 70 h",420 nM
same,IC50,"[13]; NCI-H23, 1 h",9300 nM
same,IC50,"[13]; NCI-H23, 70 h",150 nM
CC(=O)Oc1ccc(C[C@@H](C)[C@@H](C)Cc2ccc(OC(C)=O)c(OC(C)=O)c2)cc1OC(C)=O [NDGA Tetracetate],effectiveness against human breast adenocarcinoma,[1],particularly effective
CCC(=O)Oc1ccc(C[C@@H](C)[C@@H](C)Cc2ccc(OC(=O)CC)c(OC(=O)CC)c2)cc1OC(=O)CC [NDGA Tetrapropionate],effectiveness against human breast adenocarcinoma,[1],particularly effective
CC[C@]1(O)C[C@@H]2CN(CCc3c([nH]c4ccccc34)[C@@](C(=O)OC)(c3cc4c(cc3OC)N(C)[C@H]3[C@@](O)(C(=O)OC)[C@H](OC(C)=O)[C@]5(CC)C=CCN6CC[C@]43[C@@H]65)C2)C1 [VBL],sensitivity of GRC-1 compared with KB-3-1 cells,[14]; GRC-1 vs KB-3-1,large differences in sensitivity
same,IC50,"[14]; Homo sapiens, 240 h, read-out: IC50 (VBL), 50% inhibition of colony formation",52.2 nM
same,steady state accumulation and efflux in cells overexpressing mdr1,[15],decreased steady state accumulation and increased efflux
same,P-glycoprotein substrate,[16],known to be a P-glycoprotein substrate
same,IC50,[17],1.38 nM
